# BindingDB's records for doi:10.1016/j.ejmech.2021.113585 (Fudan University, 2021)
# Assay: Agonist activity at RORgammat in C57 mouse CD4+ T cells assessed as induction of Th17 cells differentiation by measuring increase in IL17 production measured after 4 days by flow cytometry analysis
row,EC50 [nM],SMILES
1,1120,CC(=O)N1CCN(c2ccc3c(c2)CCN(S(=O)(=O)N(C)Cc2ccccc2C(F)(F)F)C3)CC1
2,220,CC(=O)N1CCN(c2ccc3c(c2)CCN(S(=O)(=O)N(C)Cc2c(F)cccc2Cl)C3)CC1
3,230,CC(=O)N1CCN(c2ccc3c(c2)CCN(S(=O)(=O)N(C)Cc2ccccc2Cl)C3)CC1
